pEC50: −log10 of the molar value. Values after ≈ are worked out from the molar mass of the structure shown.

One experiment concerns N. gonorrhoeae WHO K. As to the kind of experiment: Liquid broth MIC in Fastidious broth. The conditions noted are these: Neisseria gonorrhoeae, read-out: Minimum Inhibitory Concentration (MIC), N. gonorrhoeae WHO K.
The next experiment concerns N. gonorrhoeae FA1090. As to the kind of experiment: Liquid broth MIC in Fastidious broth. To be noted: Neisseria gonorrhoeae, FA1090, read-out: Minimum Inhibitory Concentration (MIC), N. gonorrhoeae FA 1090.
Another experiment relates to N. gonorrhoeae WHO Z. As to the kind of experiment: Liquid broth MIC in Fastidious broth. The conditions noted are these: Neisseria gonorrhoeae, read-out: Minimum Inhibitory Concentration (MIC), N. gonorrhoeae WHO Z.
Another experiment deals with P. aeruginosa ATCC 27853. As to the kind of experiment: microbe, parasite or virus in culture. It counts as cell-based. The conditions noted are these: Pseudomonas aeruginosa, ATCC27853, read-out: MIC P. aeruginosa ATCC 27853.
Another experiment deals with K. pneumoniae UMM. As to the kind of experiment: microbe, parasite or virus in culture. It counts as cell-based. The conditions noted are these: Klebsiella pneumoniae, read-out: MIC K. pneumoniae UMM.
Experiment [1] has as its target T1, PBP2 from Neisseria gonorrhoeae (FA19) (Neisseria gonorrhoeae, UniProt P08149).
T1 construct: made in house
As to the kind of experiment: Bocillin-FL fluorescence polarization competition binding, N. gonorrhoeae PBP2. To be noted: fluorescence polarization competition binding assay using Bocillin-FL, read-out: N. gonorrhoeae PBP2 Potency. An outline of the steps: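 Fluorescence polarization competition with 0.1 μM Bocillin-FL (fluorescent penicillin V) against 0.25 μM N. gonorrhoeae FA19 PBP2 in 50 mM Hepes pH 8.0, 300 mM NaCl, 10% glycerol. Boronic acid inhibitors were preincubated with PBP, then Bocillin-FL was added and FP read (490/520 nm) up to 60 min. EC50 is the concentration halving PBP-bound Bocillin-FL.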

The next experiment has as its system E. coli 901C. As to the kind of experiment: microbe, parasite or virus in culture. It counts as cell-based. The conditions noted are these: Escherichia coli, read-out: MIC E. coli 901C.
For a further experiment, the system named is N. gonorrhoeae WHO G. As to the kind of experiment: Liquid broth MIC in Fastidious broth. To be noted: Neisseria gonorrhoeae, read-out: Minimum Inhibitory Concentration (MIC), N. gonorrhoeae WHO G.
The test system of the next experiment is E. coli D22. As to the kind of experiment: microbe, parasite or virus in culture. It counts as cell-based. To be noted: Escherichia coli, D22, read-out: MIC E. coli D22.
For a further experiment, the system named is N. gonorrhoeae WHO L. As to the kind of experiment: Liquid broth MIC in Fastidious broth. To be noted: Neisseria gonorrhoeae, read-out: Minimum Inhibitory Concentration (MIC), N. gonorrhoeae WHO L.
The next experiment relates to P. aeruginosa ATCC 35151. As to the kind of experiment: microbe, parasite or virus in culture. The conditions noted are these: Pseudomonas aeruginosa, ATCC35151, read-out: MIC P. aeruginosa ATCC 35151. It counts as cell-based.
In a further experiment the test system is E. coli AG100. As to the kind of experiment: microbe, parasite or virus in culture. It counts as cell-based. To be noted: Escherichia coli, AG100, read-out: MIC E. coli AG100.
The subject of the next experiment is K. pneumoniae SI-117. As to the kind of experiment: microbe, parasite or virus in culture. It counts as cell-based. The conditions noted are these: Klebsiella pneumoniae, SI117, read-out: MIC K. pneumoniae SI-117.
The subject of the next experiment is N. gonorrhoeae MS11. As to the kind of experiment: Liquid broth MIC in Fastidious broth. To be noted: Neisseria gonorrhoeae, MS11, read-out: Minimum Inhibitory Concentration (MIC), N. gonorrhoeae MS11.

T1 sequence (P08149 whole entry): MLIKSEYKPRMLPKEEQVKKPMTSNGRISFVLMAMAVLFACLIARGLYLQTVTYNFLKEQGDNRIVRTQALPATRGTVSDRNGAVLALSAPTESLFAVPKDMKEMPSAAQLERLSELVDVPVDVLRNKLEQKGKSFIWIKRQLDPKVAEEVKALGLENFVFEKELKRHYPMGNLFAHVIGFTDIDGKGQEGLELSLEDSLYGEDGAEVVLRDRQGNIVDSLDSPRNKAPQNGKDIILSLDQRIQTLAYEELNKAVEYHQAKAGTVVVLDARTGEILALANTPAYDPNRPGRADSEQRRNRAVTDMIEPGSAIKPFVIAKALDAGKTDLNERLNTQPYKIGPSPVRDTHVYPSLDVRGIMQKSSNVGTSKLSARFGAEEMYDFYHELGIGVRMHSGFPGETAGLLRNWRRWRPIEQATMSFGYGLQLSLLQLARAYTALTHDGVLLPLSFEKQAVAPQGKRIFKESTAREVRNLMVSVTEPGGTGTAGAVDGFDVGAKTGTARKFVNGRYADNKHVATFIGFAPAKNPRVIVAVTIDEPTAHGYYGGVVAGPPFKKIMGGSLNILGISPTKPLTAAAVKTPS
Protocol for N. gonorrhoeae WHO L: Liquid broth-based assays were used for antibacterial testing of PBP inhibitors in Neisseria gonorrhoeae. Briefly, cryo-preserved bacterial cultures of clinical strains were streaked for isolation on Chocolate Agar (72 g/L (2×) GC Agar Base (BD #228950) and 2% (2×) Hemoglobin was autoclaved at 121° C. for 20 minutes to sterilize. Once cooled to ˜50° C. the 2×GC Agar Base and 2× Hemoglobin solutions are combined and 1% IsoVitaleX Enrichment (BD #211876) was added to the solution). Strains were incubated at 36° C. and 5% CO2 to allow growth of colonies, 24 hours before inoculum preparation. 2-fold serial dilutions of test compounds were conducted in a 96 well plate with a final volume of 75 μL per well at 2-fold the final desired concentration in Fastidious broth (Remel #R07664). For preparation of assay inoculum, a direct suspension was prepared by aseptically swabbing 10-15 colonies from agar plates into culture tubes containing 2 mL of fresh sterile saline. After the dilution plates were set up, direct suspensions were then diluted in a cuvette containing sterile saline and the optical density was measured at 600 nm. Inocula were diluted such that 75 μL of this culture in Fastidious broth results in a starting bacterial concentration of 5×10^5 CFU/mL when added to the dilution plates. The plates were incubated for ˜24 hours at 36° C. and 5% CO2.

As for `CN1CCCN(C(=O)NC(C(=O)N[C@H]2Cc3cccc(C(=O)O)c3OB2O)c2ccc(P(=O)(O)O)cc2)C1=O` (stereo partly drawn) [Example 38, (3R)-2-hydroxy-3-(2-(3-methyl-2-oxohexahydropyrimidine-1-carboxamido)-2-(4-phosphonophenyl)acetamido)-3,4-dihydro-2H-benzo[e][1,2]oxaborinine-8-carboxylic acid], the MIC in the experiment with N. gonorrhoeae WHO K was 4 to 8 µg/mL (≈ 7.14 to 14.3 µM); in the experiment on N. gonorrhoeae FA1090 it was less than 1 µg/mL; in the experiment on N. gonorrhoeae WHO Z, 1 to 2 µg/mL (≈ 1.78 to 3.57 µM); with P. aeruginosa ATCC 27853 it was greater than 128 µg/mL; in the experiment on K. pneumoniae UMM, greater than 128 µg/mL; in the experiment with E. coli 901C, 2 to 4 µg/mL (≈ 3.57 to 7.14 µM). The MIC in the experiment with N. gonorrhoeae WHO G was less than 1 µg/mL; with E. coli D22 it was 8 to 16 µg/mL (≈ 14.3 to 28.6 µM); in the experiment on N. gonorrhoeae WHO L, 16 to 32 µg/mL (≈ 28.6 to 57.1 µM); with P. aeruginosa ATCC 35151, 2 to 4 µg/mL (≈ 3.57 to 7.14 µM); with E. coli AG100, greater than 128 µg/mL; with K. pneumoniae SI-117, greater than 128 µg/mL. Besides, the MIC with N. gonorrhoeae MS11 was 1 to 2 µg/mL (≈ 1.78 to 3.57 µM). Besides, the pEC50 in experiment [1] was greater than 5.00.
With `O=C(O)c1cccc2c1OB(O)[C@@H](NC(=O)[C@@H](NC(=O)N1CCNC1=O)c1ccc(P(=O)(O)O)cc1)C2` [Example 39, (R)-2-hydroxy-3-((S)-2-(2-oxoimidazolidine-1-carboxamido)-2-(4-phosphonophenyl)acetamido)-3,4-dihydro-2H-benzo[e][1,2]oxaborinine-8-carboxylic acid], the MIC in the experiment with N. gonorrhoeae WHO K was 16 to 32 µg/mL (≈ 30.1 to 60.1 µM); with N. gonorrhoeae FA1090, less than 1 µg/mL; in the experiment with N. gonorrhoeae WHO Z, 1 to 2 µg/mL (≈ 1.88 to 3.76 µM); in the experiment with P. aeruginosa ATCC 27853, greater than 128 µg/mL; with K. pneumoniae UMM, greater than 128 µg/mL; in the experiment with E. coli 901C it was 2 to 4 µg/mL (≈ 3.76 to 7.52 µM). Further, the MIC with N. gonorrhoeae WHO G is less than 1 µg/mL; in the experiment on E. coli D22, 32 to 64 µg/mL (≈ 60.1 to 120 µM); in the experiment with N. gonorrhoeae WHO L, 16 to 32 µg/mL (≈ 30.1 to 60.1 µM); with P. aeruginosa ATCC 35151, 2 to 4 µg/mL (≈ 3.76 to 7.52 µM); in the experiment with E. coli AG100 it was greater than 128 µg/mL; in the experiment with K. pneumoniae SI-117, greater than 128 µg/mL. For the same compound, the MIC in the experiment with N. gonorrhoeae MS11 was 1 to 2 µg/mL (≈ 1.88 to 3.76 µM). Also, the pEC50 in [1] is 4.30 to 5.00.
For `O=C(O)c1cccc2c1OB(O)[C@@H](NC(=O)[C@H](NC(=O)N1CCNC1=O)c1ccc(P(=O)(O)O)cc1)C2` [Example 40, (R)-2-hydroxy-3-((R)-2-(2-oxoimidazolidine-1-carboxamido)-2-(4-phosphonophenyl)acetamido)-3,4-dihydro-2H-benzo[e][1,2]oxaborinine-8-carboxylic acid], the MIC in the experiment with N. gonorrhoeae WHO K was 1 to 2 µg/mL (≈ 1.88 to 3.76 µM); in the experiment with N. gonorrhoeae FA1090 it was less than 1 µg/mL; in the experiment with N. gonorrhoeae WHO Z, less than 1 µg/mL; in the experiment on P. aeruginosa ATCC 27853, 32 to 64 µg/mL (≈ 60.1 to 120 µM); in the experiment with K. pneumoniae UMM, 32 to 64 µg/mL (≈ 60.1 to 120 µM); in the experiment on E. coli 901C, less than 1 µg/mL. Moreover, the MIC in the experiment on N. gonorrhoeae WHO G was less than 1 µg/mL; in the experiment on E. coli D22, 2 to 4 µg/mL (≈ 3.76 to 7.52 µM); with N. gonorrhoeae WHO L, 1 to 2 µg/mL (≈ 1.88 to 3.76 µM); with P. aeruginosa ATCC 35151, less than 1 µg/mL; in the experiment on E. coli AG100, 32 to 64 µg/mL (≈ 60.1 to 120 µM); in the experiment with K. pneumoniae SI-117, greater than 128 µg/mL. The MIC with N. gonorrhoeae MS11 is less than 1 µg/mL. In addition, the pEC50 in experiment [1] is greater than 5.00.
As for `CN1CCN(C(=O)NC(C(=O)N[C@H]2Cc3cccc(C(=O)O)c3OB2O)c2ccc(P(=O)(O)O)cc2)C1=O` (stereo partly drawn) [Example 41, (3R)-2-hydroxy-3-(2-(3-methyl-2-oxoimidazolidine-1-carboxamido)-2-(4-phosphonophenyl)acetamido)-3,4-dihydro-2H-benzo[e][1,2]oxaborinine-8-carboxylic acid], the MIC in the experiment with N. gonorrhoeae WHO K was less than 1 µg/mL; with N. gonorrhoeae FA1090 it was less than 1 µg/mL; in the experiment on N. gonorrhoeae WHO Z it was less than 1 µg/mL; in the experiment with P. aeruginosa ATCC 27853, greater than 128 µg/mL; with K. pneumoniae UMM, 32 to 64 µg/mL (≈ 58.6 to 117 µM); with E. coli 901C, less than 1 µg/mL. Besides, the MIC in the experiment with N. gonorrhoeae WHO G was less than 1 µg/mL; in the experiment on E. coli D22, 2 to 4 µg/mL (≈ 3.66 to 7.32 µM); with N. gonorrhoeae WHO L, 1 to 2 µg/mL (≈ 1.83 to 3.66 µM); in the experiment on P. aeruginosa ATCC 35151, less than 1 µg/mL; in the experiment with E. coli AG100, 32 to 64 µg/mL (≈ 58.6 to 117 µM); in the experiment on K. pneumoniae SI-117 it was greater than 128 µg/mL. Moreover, in the experiment with N. gonorrhoeae MS11, the MIC is less than 1 µg/mL. For the same compound, the pEC50 in [1] was greater than 5.00.
Turning to `CCN1CCN(C(=O)NC(C(=O)N[C@H]2Cc3cccc(C(=O)O)c3OB2O)c2ccc(P(=O)(O)O)cc2)C1=O` (stereo partly drawn) [Example 42, (3R)-3-(2-(3-ethyl-2-oxoimidazolidine-1-carboxamido)-2-(4-phosphonophenyl)acetamido)-2-hydroxy-3,4-dihydro-2H-benzo[e][1,2]oxaborinine-8-carboxylic acid], the MIC was 1 to 2 µg/mL (≈ 1.78 to 3.57 µM) in the experiment on N. gonorrhoeae WHO K; less than 1 µg/mL in the experiment on N. gonorrhoeae FA1090; less than 1 µg/mL with N. gonorrhoeae WHO Z; greater than 128 µg/mL in the experiment on P. aeruginosa ATCC 27853; 32 to 64 µg/mL (≈ 57.1 to 114 µM) in the experiment with K. pneumoniae UMM; less than 1 µg/mL with E. coli 901C. Moreover, the MIC in the experiment with N. gonorrhoeae WHO G is less than 1 µg/mL; in the experiment with E. coli D22, 2 to 4 µg/mL (≈ 3.57 to 7.14 µM); with N. gonorrhoeae WHO L, 1 to 2 µg/mL (≈ 1.78 to 3.57 µM); with P. aeruginosa ATCC 35151, less than 1 µg/mL; in the experiment on E. coli AG100, 32 to 64 µg/mL (≈ 57.1 to 114 µM); in the experiment with K. pneumoniae SI-117, greater than 128 µg/mL. Further, the MIC with N. gonorrhoeae MS11 was less than 1 µg/mL. In addition, the pEC50 in [1] was greater than 5.00.

The values above are taken from US20240270762A1, “PENICILLIN-BINDING PROTEIN INHIBITORS” (priority 2021, published 2024).
